Results from PubChem BioAssay AID1996.
Values after ≈ are worked out from the molar mass of the structure shown.

Conditions: buffer; pH 7.4; 200.0 µM
`O=C1c2ccccc2C(O)N1c1ccccc1` (stereo unspecified) showed a solubility kinetic of over 33.8 µg/mL.
In the case of `O=c1[nH]cnc2sc3c(c12)CCCCC3`, the solubility kinetic is reported as 19.9 µg/mL (≈ 90.3 µM).
For `COc1ccc(/C=N/OC(=O)Nc2ccc(Cl)cc2)c(OC)c1`, the solubility kinetic was 6.2 µg/mL (≈ 18.5 µM).
Compound `O=C(CCc1nc(-c2ccccc2Cl)no1)NC1CCCC1` has a solubility kinetic of 23 µg/mL (≈ 71.9 µM).
Compound `O=C(N/N=C/c1cccc2ccccc12)c1cccnc1` has a solubility kinetic of over 41.3 µg/mL.
Work on `Cc1nc(-c2cccc(S(=O)(=O)N3CCCCC3)c2)cs1` yielded a solubility kinetic of 24.3 µg/mL (≈ 75.4 µM).
`Cc1ccc(NC(=O)C(Cc2ccccc2)n2cccc2)cc1` (stereo unspecified) showed a solubility kinetic of 1.9 µg/mL (≈ 6.24 µM).
With `CC(=O)N1C(C)(C)CC(=NOC(=O)c2ccccc2)CC1(C)C` the solubility kinetic was 47.1 µg/mL (≈ 149 µM).
In the case of `COc1ccc(OC)c(S(=O)(=O)N2CCNCC2)c1`, the solubility kinetic is reported as 38.1 µg/mL (≈ 133 µM).
In the case of `CCOC(=O)c1nc(Nc2ccccc2C)c2ccccc2n1`, the solubility kinetic is reported as over 46.1 µg/mL.
With `N=C1c2ccccc2CN1c1cccc([N+](=O)[O-])c1` the solubility kinetic was over 38 µg/mL.
Work on `CS(=O)(=O)N1CCCC(C(=O)Nc2ccccc2Cl)C1` (stereo unspecified) yielded a solubility kinetic of over 47.5 µg/mL.
`CC(C)N1CC(C(=O)Nc2ccc(F)c(Cl)c2)CC1=O` (stereo unspecified) showed a solubility kinetic of over 44.8 µg/mL.
Compound `O=C(/C=C/c1ccccc1)NCCc1c[nH]c2ccccc12` has a solubility kinetic of 19.7 µg/mL (≈ 67.8 µM).
Work on `CC(C)CC(=O)Nc1ccc(C(=O)CN2CCC(C)CC2)cc1` yielded a solubility kinetic of 39.4 µg/mL (≈ 125 µM).
Compound `Cc1cccc(NC(=O)NNC(=O)c2ccccn2)c1` has a solubility kinetic of over 40.5 µg/mL.
With `Cc1cnc(C(=O)OCC(=O)Nc2ccccc2[N+](=O)[O-])cn1` the solubility kinetic was over 47.4 µg/mL.
With `O=S(=O)(Nc1cc(S(=O)(=O)N2CCOCC2)ccc1Cl)c1ccccc1` the solubility kinetic was over 62.5 µg/mL.
`COc1cccc(C(=O)Nc2sc3c(c2C(=O)O)CCCC3)c1` showed a solubility kinetic of over 49.7 µg/mL.
`O=c1c2ccccc2nc(Cc2cccc([N+](=O)[O-])c2)n1-c1ccc(O)cc1` showed a solubility kinetic of 47.8 µg/mL (≈ 128 µM).
With `COc1ccc(CNc2cc(C)ccn2)c(O)c1` the solubility kinetic was 29.9 µg/mL (≈ 122 µM).
`CN(C)c1ccc(/C=C/C(=O)c2ccc(O)cc2)cc1[N+](=O)[O-]` showed a solubility kinetic of 1.2 µg/mL (≈ 3.84 µM).
`CC(C)CCN1CCC(N)=NC1=O` showed a solubility kinetic of 26.8 µg/mL (≈ 146 µM).
In the case of `Cc1cc(C)n2nc(SCC(=O)N3CCC(C(=O)O)CC3)nc2n1`, the solubility kinetic is reported as over 52.4 µg/mL.
`C=CCNC1=C(Cl)C(=O)N(Cc2ccccc2)C1=O` gave a solubility kinetic of 5.8 µg/mL (≈ 21 µM).
`CC(=O)c1c(C)[nH]c(C(=O)COC(=O)c2cccs2)c1C` gave a solubility kinetic of 6.9 µg/mL (≈ 22.6 µM).
With `Cc1ccc(SCC(=O)c2c(C)nc3ccccn23)cc1` the solubility kinetic was 2.6 µg/mL (≈ 8.77 µM).
With `C=CCn1cccc(C(=O)Nc2ccc(SC)cc2)c1=O` the solubility kinetic was 38.5 µg/mL (≈ 128 µM).
Work on `CC(C)(C)NC(=O)C1CC(=O)N(CCc2ccc(F)cc2)C1` (stereo unspecified) yielded a solubility kinetic of over 46 µg/mL.
Compound `Cc1cccc(C(=O)N[C@H](C(=O)NCc2cccs2)C(C)C)c1` has a solubility kinetic of 7.5 µg/mL (≈ 22.7 µM).
With `O=c1cc(C(F)(F)F)[nH]c(=S)n1-c1ccccc1` the solubility kinetic was over 40.8 µg/mL.
In the case of `CN(C)c1ccc(C(=O)OCC(=O)c2ccc[nH]2)cc1`, the solubility kinetic is reported as 7.8 µg/mL (≈ 28.6 µM).
`CC(C)c1ccc(NC(=O)COc2ccccc2)cc1` gave a solubility kinetic of 10.1 µg/mL (≈ 37.5 µM).
Work on `Cc1ccc(S(=O)(=O)N2CCOC2C(Cl)(Cl)Cl)cc1` (stereo unspecified) yielded a solubility kinetic of 2.6 µg/mL (≈ 7.54 µM).
`Nc1ccc2c(c1)Oc1ccccc1C=C2` gave a solubility kinetic of 12.3 µg/mL (≈ 58.8 µM).
For `Clc1ccccc1N=C1SCCS1`, the solubility kinetic was 18.2 µg/mL (≈ 79.2 µM).
In the case of `O=C(CSc1cccc2cccnc12)Nc1ccccc1F`, the solubility kinetic is reported as 7.3 µg/mL (≈ 23.4 µM).
`CCOC(=O)CCCNC(=O)COC(=O)c1cccc(F)c1` showed a solubility kinetic of 44.4 µg/mL (≈ 143 µM).
With `Cc1nc2cc(NS(=O)(=O)c3ccccc3F)ccc2s1` the solubility kinetic was 35.6 µg/mL (≈ 110 µM).
`NC(=O)c1sc2nc(-c3cccs3)ccc2c1N` showed a solubility kinetic of 6.1 µg/mL (≈ 22.2 µM).
With `CN(C(=S)NCCN1CCOCC1)C(c1ccccc1)c1ccccc1` the solubility kinetic was 42.7 µg/mL (≈ 116 µM).
With `Cc1nc(/N=C(\N)NC(=O)NC2CCCCC2)nc2ccccc12` the solubility kinetic was 12.7 µg/mL (≈ 38.9 µM).
`O=C(COC(=O)c1cc(S(=O)(=O)N2CCOCC2)ccc1F)Nc1cc([N+](=O)[O-])ccc1F` gave a solubility kinetic of 7.4 µg/mL (≈ 15.2 µM).
In the case of `COCCOc1cc(COC)nc(-c2cccc(C)c2)n1`, the solubility kinetic is reported as 25.3 µg/mL (≈ 87.7 µM).
In the case of `COc1cccc(NC(=O)CN(C)C(C)C(=O)N2CCCCC2)c1.O=C(O)C(=O)O` (stereo unspecified), the solubility kinetic is reported as over 63.5 µg/mL.
In the case of `CCOc1ccc(S(=O)(=O)N=C(c2ccccc2)N2CCOCC2)cc1`, the solubility kinetic is reported as over 56.2 µg/mL.
For `O=C1CCCc2c1nc(-c1ccc([N+](=O)[O-])cc1)n2O`, the solubility kinetic was over 41 µg/mL.
With `NC(=O)c1cc(S(=O)(=O)Nc2ccccc2)cs1` the solubility kinetic was over 42.3 µg/mL.
With `Nc1cc(C(=O)OCC(=O)Nc2cccc(S(=O)(=O)N3CCOCC3)c2)ccc1Cl` the solubility kinetic was 24.4 µg/mL (≈ 53.8 µM).
`CC12CCC(C(=O)N(CC3CO3)C1=O)C2(C)C` (stereo unspecified) gave a solubility kinetic of over 35.6 µg/mL.
For `COc1ccccc1OCCNC(=O)C1CCCCC1`, the solubility kinetic was 33.8 µg/mL (≈ 122 µM).
Work on `N/C(=N\OC(=O)/C=C/c1ccccc1)c1ccc(Cl)cc1` yielded a solubility kinetic of 1.3 µg/mL (≈ 4.32 µM).
Work on `COc1ccccc1N(Cc1ccccc1)S(=O)(=O)c1cccc(C(=O)N2CCCCC2)c1` yielded a solubility kinetic of 11.3 µg/mL (≈ 24.3 µM).
For `O=C1NC(=O)N(c2ccccc2)C(=O)/C1=C\c1ccccc1[N+](=O)[O-]`, the solubility kinetic was over 50.6 µg/mL.
Work on `NS(=O)(=O)c1ccc(C(=O)Nc2ccc(-c3nc4cccnc4s3)cc2)cc1` yielded a solubility kinetic of 2.5 µg/mL (≈ 6.09 µM).
With `O=C(CCCc1cccs1)Nc1nccs1` the solubility kinetic was 26.8 µg/mL (≈ 106 µM).
In the case of `Cc1cccc(C(=O)NCCNC(=O)c2ccco2)c1`, the solubility kinetic is reported as 34.5 µg/mL (≈ 127 µM).
In the case of `O=C(O)/C=C/c1cccc(NC(=O)c2ccccc2)c1`, the solubility kinetic is reported as 34 µg/mL (≈ 127 µM).
In the case of `O=c1[nH]c2ccccc2n1CCCN1CCC(n2c(=O)[nH]c3cc(Cl)ccc32)CC1`, the solubility kinetic is reported as 50.4 µg/mL (≈ 118 µM).
Work on `COc1ccc(Cl)cc1C(=O)Nc1cccc2ncccc12` yielded a solubility kinetic of 2.2 µg/mL (≈ 7.03 µM).
`Cc1ccc(F)cc1NC(=O)/C=C/c1ccc(S(=O)(=O)N2CCOCC2)cc1` gave a solubility kinetic of 1.8 µg/mL (≈ 4.45 µM).
Work on `CCCN1CNC(=S)N(c2ccc(C)cc2C)C1` yielded a solubility kinetic of over 39.5 µg/mL.
Work on `COC(=O)N1CCCc2cc(C)ccc21` yielded a solubility kinetic of 15.5 µg/mL (≈ 75.5 µM).
`Cc1cccnc1NC(=O)c1sc2ccccc2c1Cl` showed a solubility kinetic of 3 µg/mL (≈ 9.91 µM).
`Cc1csc(NC(=O)C2CCCCC2)n1` showed a solubility kinetic of 19.9 µg/mL (≈ 88.7 µM).
In the case of `CC(C)NC(=O)COc1ccc(OCc2ccccc2)cc1`, the solubility kinetic is reported as 9.5 µg/mL (≈ 31.7 µM).
`O=C(CN1C(=O)NC2(CCCCCCC2)C1=O)Nc1ccc(OC(F)F)cc1` gave a solubility kinetic of 20.8 µg/mL (≈ 52.6 µM).
`CC1(C)CC(CCN)(Cc2ccccc2Cl)CCO1` (stereo unspecified) gave a solubility kinetic of 37.7 µg/mL (≈ 134 µM).
Compound `CN1CCCC(OC(=O)c2ccccc2Br)C1.Cl` (stereo unspecified) has a solubility kinetic of over 50.2 µg/mL.
Work on `Cc1cccc(N2CCN(C(=O)c3ccccn3)CC2C)c1` (stereo unspecified) yielded a solubility kinetic of over 44.3 µg/mL.
In the case of `COc1ccccc1OCCNC(=O)Nc1cc(F)c(F)cc1Cl`, the solubility kinetic is reported as 0.7 µg/mL (≈ 1.96 µM).
`COc1ccccc1C(=O)Nc1ccc(Br)c2cccnc12` gave a solubility kinetic of under 0.4 µg/mL.
Work on `Cc1c(-n2cccc2C=O)cccc1[N+](=O)[O-]` yielded a solubility kinetic of over 34.5 µg/mL.
Work on `Cl.O=C(c1cc2ccccc2o1)N1CCN(Cc2ccccc2)CC1` yielded a solubility kinetic of 41.5 µg/mL.
With `CC(C)=CC(=O)OCC(=O)Nc1cc(C)ccc1C` the solubility kinetic was 15 µg/mL (≈ 57.4 µM).
`Cc1cc(C(=O)OCC(=O)NC2CCCC(C)C2C)c(C)o1` (stereo unspecified) showed a solubility kinetic of 12.4 µg/mL (≈ 40.3 µM).
Work on `CC1(CO)COC(c2ccccc2)=N1` (stereo unspecified) yielded a solubility kinetic of over 28.7 µg/mL.
Compound `CN(Cc1cccc(Cl)c1Cl)C(=O)CCNC(=O)c1ccco1` has a solubility kinetic of over 53.3 µg/mL.
For `O=C(NC(=S)NNC(=O)c1cccs1)c1ccccc1`, the solubility kinetic was over 45.8 µg/mL.
With `CCC1Cc2c(nc(N)c3c(N)nc(N4CCOCC4)c(C#N)c23)O1` (stereo unspecified) the solubility kinetic was 8.9 µg/mL (≈ 26.1 µM).
`COc1ccc(CNC(=O)COC(=O)CN2C(=O)C3CC=CCC3C2=O)cc1` (stereo unspecified) gave a solubility kinetic of over 58 µg/mL.
In the case of `CC(=O)c1c(C)oc2ccc(NS(=O)(=O)c3ccc(F)cc3C)cc12`, the solubility kinetic is reported as under 0.8 µg/mL.
Work on `NC(=S)NC1CCS(=O)(=O)C1` (stereo unspecified) yielded a solubility kinetic of over 29.1 µg/mL.
For `Cc1ccnc(SCC(=O)c2cc3ccccc3o2)n1`, the solubility kinetic was 1.3 µg/mL (≈ 4.57 µM).
`O=C(c1ccccc1)C1CCN(C(=O)Nc2ccccc2)CC1` showed a solubility kinetic of 41.2 µg/mL (≈ 134 µM).
For `O=C1NC(=O)C(c2cccs2)(c2cccs2)N1`, the solubility kinetic was over 39.6 µg/mL.
